# How the values were obtained:
# PSD-95-nNOS complex = target: T1, PSD-95-nNOS complex (Rattus norvegicus, UniProt P29476); test: Co-IP of PSD-95-nNOS complex levels in the spinal dorsal horn after SNL; format: in vivo; conditions: SNL rats treated by ZL006-05
# T1 construct: dorsal spinal cord tissues (L4 and L5) were lysed in 400 μl RIPA; from tissue; host or cells: rat dorsal spinal cord (L4 and L5), SNL model
# [1] = test system: basic pain threshold under normal conditions; test: Mechanical nociceptive thresholds in normal rats; format: in vivo, rat; conditions: ZL006-05 90 mg/kg/d, i.g., × 11 d, 2 h after administration
# Protocol: For rats, the threshold for 50% paw withdrawal (50% PWT) response to mechanical stimulus was assessed through a dynamic plantar apparatus (Ugo Basile, Italy). The 50% PWT refers to that the probability of paw withdrawal response to repeated mechanical stimulus is 50%. Rats were placed individually in a plastic cage (17 × 15 × 15 cm) with a wire mesh bottom which allowed full access to the paws. Behavioral accommodation was allowed for 15-20 min until cage exploration and major grooming activities ceased. A maximal cut-off of 50g/50s was set to prevent tissue damage. To record the PWT in response to mechanical stimulus, each rat was measured five times with a 5-min interval, and the mean value was recorded after excluding maximal and minimum values. The experimental procedures were performed in a double-blind manner.
# locomotor activity = test: Open field test, locomotor activity; format: in vivo; conditions: mice, 1 h after injection, ZL006-05 60 mg/kg, i.v., diazepam 0.5 mg/kg
# Protocol: The locomotor activity was assessed by the open field test as described previously. The apparatus consisted of a large area composed of plastic, surrounded by walls that were 100 cm high. The floor was 50 × 50 cm for mice; the overall illumination was 25 lux. Each animal was gently placed in the center of the open field, and its behavior was videotaped. The distance the animals travelled was measured in a 5-min session using ANY-maze (Stoelting Co., IL, USA). After each trial, the plate was cleaned with 70% EtOH. No stressor was applied to the animals for at least 12 h before the test.
# [2] = test system: CFA-induced inflammatory pain; test: CFA-induced inflammatory pain, paw withdrawal threshold; format: in vivo; conditions: mice, ZL006-05 60 mg/kg, i.g., given 24 h after CFA injection
# Protocol: For mice, the threshold for 50% PWT response to mechanical stimulus was quantified by assessing the paw withdrawal threshold using von Frey filaments (Touch-Test TM Sensory Evaluator, North coast Medical, Inc.). Mice were placed individually in a plastic cage (4.5 × 5 × 11 cm) with a wire mesh bottom which allowed full access to the paws. Behavioral accommodation was allowed for 20-30 min until cage exploration and major grooming activities ceased. Mechanical threshold was measured by applying a von Frey filament to the ventral surface of the right hind paw until a positive sign of pain behavior was elicited. The paradigm for assessing the threshold was as follows. Von Frey filaments with logarithmically incremental stiffness (0.02-2 g) were applied serially to the paw by the up-down method. […]
# (A) Time course of SNL-induced thermal hyperalgesia after treating with ZL006-05 (60 mg/kg, i.g.) in mice. Paw withdrawal latency response to thermal stimulation was detected at 0, 1, 2, 4, 6, 8, 10, 12 and 24 h after drug administration. ( B) Areas under the curve of paw withdrawal latency 0-24 h after treatment calculated from ( A) (F (1,16) = 43.07, ***p < 0.001, two-tailed t-test, n = 9). […] (E) Areas under the curve of paw withdrawal latency 0-24 h after treatment calculated from (D) (F (1,18) = 71.73, ***p <0.001, two-tailed t-test, n = 10). […]
# [3] = test system: SNL-induced thermal hyperalgesia; test: SNL-induced thermal hyperalgesia, paw withdrawal latency; format: in vivo, mice; conditions: mice, ZL006-05 60 mg/kg, i.g., 0-24 h
# Protocol: Neuropathic pain was induced by segmental spinal nerve ligation (SNL). Animals were anesthetized with isoflurane. After the loss of righting reflex, the animal was fixed in the prone position. The SNL model was prepared as described previously: a median skin incision with about 3-5 cm length in L4-S2 level of the mouse back was made, the muscles next to the vertebrae till the sixth lumbar protruding were separated, the L5/L6 joint protruding on the right side was exposed and excised, and L6 processus transversus was partially split so that the L4-L6 spinal nerves on the right side were exposed. L5 nerve was gently isolated and tightly ligated with 5-0 silk thread. […]
# Paw withdrawal latency (PWL) response to thermal stimulus was assessed through the Hargreaves test. […] To record the PWL in response to thermal stimulus, each animal was measured five times with a 5-min interval, and the mean value was recorded after excluding maximal and minimum values. […]
# (A) Time course of SNL-induced thermal hyperalgesia after treating with ZL006-05 (60 mg/kg, i.g.) in mice. Paw withdrawal latency response to thermal stimulation was detected at 0, 1, 2, 4, 6, 8, 10, 12 and 24 h after drug administration. ( B) Areas under the curve of paw withdrawal latency 0-24 h after treatment calculated from ( A) (F (1,16) = 43.07, ***p < 0.001, two-tailed t-test, n = 9). […]
# [4] = test system: SNL-induced mechanical hyperalgesia; test: SNL-induced mechanical hyperalgesia, von Frey; format: in vivo, mice
# Protocol: Neuropathic pain was induced by segmental spinal nerve ligation (SNL). Animals were anesthetized with isoflurane. After the loss of righting reflex, the animal was fixed in the prone position. The SNL model was prepared as described previously: a median skin incision with about 3-5 cm length in L4-S2 level of the mouse back was made, the muscles next to the vertebrae till the sixth lumbar protruding were separated, the L5/L6 joint protruding on the right side was exposed and excised, and L6 processus transversus was partially split so that the L4-L6 spinal nerves on the right side were exposed. L5 nerve was gently isolated and tightly ligated with 5-0 silk thread. The wound was closed with 4-0 silk thread suture and covered with iodine solution. After nerve ligation, animals with signs of paw clonus or autotomy were excluded from further experiments.
# For mice, the threshold for 50% PWT response to mechanical stimulus was quantified by assessing the paw withdrawal threshold using von Frey filaments (Touch-Test TM Sensory Evaluator, North coast Medical, Inc.). Mice were placed individually in a plastic cage (4.5 × 5 × 11 cm) with a wire mesh bottom which allowed full access to the paws. Behavioral accommodation was allowed for 20-30 min until cage exploration and major grooming activities ceased. Mechanical threshold was measured by applying a von Frey filament to the ventral surface of the right hind paw until a positive sign of pain behavior was elicited. The paradigm for assessing the threshold was as follows. Von Frey filaments with logarithmically incremental stiffness (0.02-2 g) were applied serially to the paw by the up-down method. The filaments were presented, in ascending order of strength, perpendicular to the plantar surface with sufficient force to causes light bending against the paw and held for 4s. A positive response was noted if the paw was sharply withdrawn. Flinching immediately upon removal of the hair was also considered a positive response. The 2-g filament was selected as the upper limit cut-off for testing. If there was no response at 2-g filament, animals were assigned this cut-off value. The pattern of positive and negative withdrawal responses was converted to 50% threshold according to the formula: 50% PWT = 10 log (X) + κδ. X = value (in log unit) of the final von Frey hair used; κ is correction factors based on the pattern of responses from the calibration table; δ = mean difference in log units between stimuli (here, 0.224).
# [5] = test system: SNL-induced mechanical hyperalgesia; test: SNL-induced mechanical hyperalgesia, paw withdrawal threshold; format: in vivo, rat; conditions: SNL rats, ZL006-05 60 mg/kg/d, i.g., ×11 d
# T1 sequence (P29476 whole entry, one chain of several): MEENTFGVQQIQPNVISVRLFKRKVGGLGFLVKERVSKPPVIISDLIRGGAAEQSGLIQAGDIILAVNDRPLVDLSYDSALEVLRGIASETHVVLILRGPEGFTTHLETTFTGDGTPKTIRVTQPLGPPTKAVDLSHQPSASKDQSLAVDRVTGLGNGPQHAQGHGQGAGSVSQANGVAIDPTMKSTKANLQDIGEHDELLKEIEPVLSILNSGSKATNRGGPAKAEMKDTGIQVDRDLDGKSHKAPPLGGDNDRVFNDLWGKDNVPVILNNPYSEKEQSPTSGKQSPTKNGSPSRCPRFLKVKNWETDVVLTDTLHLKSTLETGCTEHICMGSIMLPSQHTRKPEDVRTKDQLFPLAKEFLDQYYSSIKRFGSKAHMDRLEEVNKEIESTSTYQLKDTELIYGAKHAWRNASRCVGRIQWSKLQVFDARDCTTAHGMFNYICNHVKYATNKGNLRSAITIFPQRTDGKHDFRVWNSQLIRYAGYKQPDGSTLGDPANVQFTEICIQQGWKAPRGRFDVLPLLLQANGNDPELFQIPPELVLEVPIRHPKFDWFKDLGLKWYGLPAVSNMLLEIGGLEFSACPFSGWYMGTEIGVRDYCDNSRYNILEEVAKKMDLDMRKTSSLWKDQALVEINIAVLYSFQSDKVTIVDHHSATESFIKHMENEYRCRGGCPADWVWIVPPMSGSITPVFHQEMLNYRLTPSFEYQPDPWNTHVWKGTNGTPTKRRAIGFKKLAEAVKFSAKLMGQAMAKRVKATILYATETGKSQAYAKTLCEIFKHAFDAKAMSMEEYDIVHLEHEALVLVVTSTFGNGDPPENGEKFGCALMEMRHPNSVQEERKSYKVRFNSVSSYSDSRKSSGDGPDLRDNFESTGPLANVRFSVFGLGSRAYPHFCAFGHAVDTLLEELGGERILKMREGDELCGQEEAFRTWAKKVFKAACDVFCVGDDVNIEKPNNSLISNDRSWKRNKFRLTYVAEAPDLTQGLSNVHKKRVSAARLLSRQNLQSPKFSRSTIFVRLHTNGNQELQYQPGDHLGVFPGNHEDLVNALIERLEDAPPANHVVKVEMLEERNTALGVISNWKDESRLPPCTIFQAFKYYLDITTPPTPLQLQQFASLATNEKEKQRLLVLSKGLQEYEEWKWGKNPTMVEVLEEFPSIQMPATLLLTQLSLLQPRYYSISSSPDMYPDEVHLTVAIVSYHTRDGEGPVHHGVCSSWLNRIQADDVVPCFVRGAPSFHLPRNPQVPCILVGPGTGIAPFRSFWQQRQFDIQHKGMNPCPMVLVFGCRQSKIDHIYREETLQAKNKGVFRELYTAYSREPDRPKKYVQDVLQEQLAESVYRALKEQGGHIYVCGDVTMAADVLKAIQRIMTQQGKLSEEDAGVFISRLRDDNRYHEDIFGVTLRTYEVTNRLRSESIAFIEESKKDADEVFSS
structure (smiles),measurement,setting,value
CC1(C)C2CCC1(C)C(OC(=O)c1ccc(NCc3cc(Cl)cc(Cl)c3O)cc1O)C2 (stereo not drawn) [ZL006-05],PSD-95-nNOS complex level in the SDH,PSD-95-nNOS complex,abolished the SNL-induced increase in PSD-95-nNOS complex in the SDH
same,Basic mechanical nociceptive threshold,[1],did not change the basic threshold
same,"Locomotor activity, distance travelled during 5 min",locomotor activity,had no effect
same,Effect on CFA-induced inflammatory pain,[2],reduced
same,Effect on SNL-induced thermal hyperalgesia,[3],reduced SNL-induced mechanical hyperalgesia and thermal pain
same,"Analgesic tolerance, mechanical hyperalgesia, 28 days treatment","[4]; SNL mice, ZL006-05 60 mg/kg/d, i.g., × 28 d, pregabalin 30 mg/kg/d",maintained its antinociceptive effect during 28 days treatment
same,"Analgesic tolerance, mechanical hyperalgesia","[4]; SNL nNOS-/- and WT mice, ZL006-05 60 mg/kg/d, i.g., 11 d",caused a remarkable analgesic tolerance in nNOS^-/- mice but not in WT mice
same,Effect on SNL-induced mechanical hyperalgesia,"[4]; mice, ZL006-05 i.g., single administration, 0-12 h",reduced SNL-induced mechanical hyperalgesia
same,"Analgesic tolerance, mechanical hyperalgesia",[5],did not produce analgesic tolerance

# — article PMC8058733, “A pain killer without analgesic tolerance designed by co-targeting PSD-95-nNOS interaction and α2-containning GABAARs” (Theranostics, 2021)
